According to ChEMBL document CHEMBL5030545, “Discovery of clinical candidate Sivopixant (S-600918): Lead optimization of dioxotriazine derivatives as selective P2X3 receptor antagonists” (Bioorg Med Chem Lett, 2021):
≈ marks a conversion by molar mass, not a printed value.

Tests used:
[1] = Half life in rat at 1 mg/kg, iv; format: ADME, organism-based; details: in vivo
[2] = Plasma concentration in rat at 3 mg/kg, po measured after 3 hrs; format: ADME, organism-based
Rattus norvegicus [3] = test: Analgesic activity in rat model of partial sciatic nerve ligation-induced neuropathic pain assessed as reversal of allodynia at 10 mg/kg, po measured after 3 hrs relative to control; format: functional
P2X purinoceptor 3 = target: T1, P2X purinoceptor 3 (Rattus norvegicus, UniProt P49654); test: Antagonist activity at rat P2X3 receptor
T1 sequence (P49654 whole entry): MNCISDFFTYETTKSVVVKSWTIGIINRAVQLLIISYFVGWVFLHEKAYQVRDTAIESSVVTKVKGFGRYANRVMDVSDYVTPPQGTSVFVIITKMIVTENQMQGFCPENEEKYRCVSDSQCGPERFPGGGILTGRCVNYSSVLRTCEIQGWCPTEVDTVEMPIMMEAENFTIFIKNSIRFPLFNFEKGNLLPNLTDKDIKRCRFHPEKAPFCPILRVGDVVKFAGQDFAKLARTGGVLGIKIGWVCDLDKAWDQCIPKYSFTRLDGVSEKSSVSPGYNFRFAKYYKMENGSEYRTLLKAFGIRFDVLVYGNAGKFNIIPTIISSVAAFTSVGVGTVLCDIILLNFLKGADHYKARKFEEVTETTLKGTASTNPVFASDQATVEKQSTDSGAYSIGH

[4] = Plasma concentration in rat at 1 mg/kg, po measured after 3 hrs; format: ADME, organism-based
[5] = Clearance in rat at 1 mg/kg, iv; format: ADME, organism-based; details: in vivo
Rattus norvegicus [6] = test: Analgesic activity in rat model of partial sciatic nerve ligation-induced neuropathic pain assessed as reversal of allodynia at 3 mg/kg, po measured after 3 hrs relative to control; format: functional
[7] = Plasma concentration in rat at 10 mg/kg, po measured after 3 hrs; format: ADME, organism-based
Rattus norvegicus [8] = test: Analgesic activity in rat model of partial sciatic nerve ligation-induced neuropathic pain assessed as reversal of allodynia at 1 mg/kg, po measured after 3 hrs relative to control; format: functional
[9] = Solubility of the compound in JP2 fluid at pH 6.8; format: physicochemical
[10] = Free plasma concentration in rat plasma at 1 mg/kg administered as cassette dose; format: ADME, organism-based; details: in vivo
Cytochrome P450 3A4 = Cytochrome P450 3A4 (Homo sapiens, UniProt P08684); test: Inhibition of CYP3A4 (unknown origin); format: ADME
Cytochrome P450 3A4, sequence (P08684 whole entry): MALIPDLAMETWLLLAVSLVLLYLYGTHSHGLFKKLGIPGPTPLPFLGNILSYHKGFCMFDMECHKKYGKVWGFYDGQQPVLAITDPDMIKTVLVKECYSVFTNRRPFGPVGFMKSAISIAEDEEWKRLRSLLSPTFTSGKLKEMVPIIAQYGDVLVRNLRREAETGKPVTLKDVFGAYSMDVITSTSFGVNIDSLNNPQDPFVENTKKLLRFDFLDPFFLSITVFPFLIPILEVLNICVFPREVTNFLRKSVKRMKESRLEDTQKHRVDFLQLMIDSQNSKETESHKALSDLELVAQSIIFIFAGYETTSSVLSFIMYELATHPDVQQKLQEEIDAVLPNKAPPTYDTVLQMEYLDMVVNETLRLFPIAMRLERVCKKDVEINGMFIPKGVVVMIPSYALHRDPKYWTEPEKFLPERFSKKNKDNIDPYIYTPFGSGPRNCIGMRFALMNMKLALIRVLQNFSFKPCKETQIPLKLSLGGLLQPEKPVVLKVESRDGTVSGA

Rattus norvegicus [11] = test: Analgesic activity in po dosed rat model of partial sciatic nerve ligation-induced neuropathic pain; format: functional
P2X purinoceptor 1 = target: T2, P2X purinoceptor 1 (Homo sapiens, UniProt P51575); test: Antagonist activity at P2X1 receptor (unknown origin)
T2 sequence (P51575 whole entry): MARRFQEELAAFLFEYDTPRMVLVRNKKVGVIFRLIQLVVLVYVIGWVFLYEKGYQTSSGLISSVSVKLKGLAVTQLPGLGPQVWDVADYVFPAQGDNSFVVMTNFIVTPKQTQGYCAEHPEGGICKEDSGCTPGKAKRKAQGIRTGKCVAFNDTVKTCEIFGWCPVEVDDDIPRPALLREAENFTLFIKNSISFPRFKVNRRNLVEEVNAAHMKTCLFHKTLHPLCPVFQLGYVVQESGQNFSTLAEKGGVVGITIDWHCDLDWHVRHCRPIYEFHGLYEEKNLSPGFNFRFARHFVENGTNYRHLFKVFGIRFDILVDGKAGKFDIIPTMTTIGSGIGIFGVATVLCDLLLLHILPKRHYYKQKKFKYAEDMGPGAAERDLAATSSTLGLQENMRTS

[12] = Solubility of the compound in pH 1.2 JP1 fluid; format: physicochemical
P2X purinoceptor 7 = target: T3, P2X purinoceptor 7 (Homo sapiens, UniProt Q99572); test: Antagonist activity at P2X7 receptor (unknown origin)
T3 sequence (Q99572 whole entry): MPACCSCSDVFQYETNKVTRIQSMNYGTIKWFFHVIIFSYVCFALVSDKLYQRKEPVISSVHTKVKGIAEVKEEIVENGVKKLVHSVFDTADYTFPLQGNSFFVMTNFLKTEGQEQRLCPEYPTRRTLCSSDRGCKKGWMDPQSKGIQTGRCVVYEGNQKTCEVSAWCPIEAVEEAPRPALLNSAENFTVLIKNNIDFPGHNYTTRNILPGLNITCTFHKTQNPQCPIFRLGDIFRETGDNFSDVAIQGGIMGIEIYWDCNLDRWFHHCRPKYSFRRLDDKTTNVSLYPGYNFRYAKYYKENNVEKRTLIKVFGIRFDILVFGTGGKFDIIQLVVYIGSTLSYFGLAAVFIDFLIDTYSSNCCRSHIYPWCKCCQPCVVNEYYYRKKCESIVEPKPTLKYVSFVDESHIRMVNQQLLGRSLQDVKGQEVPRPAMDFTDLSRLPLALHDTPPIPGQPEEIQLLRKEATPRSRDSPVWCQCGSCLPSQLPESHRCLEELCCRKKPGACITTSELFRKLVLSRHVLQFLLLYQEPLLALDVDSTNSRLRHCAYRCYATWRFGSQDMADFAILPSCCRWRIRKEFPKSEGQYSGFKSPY

Cytochrome P450 2C19 = Cytochrome P450 2C19 (Homo sapiens, UniProt P33261); test: Inhibition of CYP2C19 (unknown origin); format: ADME
Cytochrome P450 2C19, sequence (P33261 whole entry): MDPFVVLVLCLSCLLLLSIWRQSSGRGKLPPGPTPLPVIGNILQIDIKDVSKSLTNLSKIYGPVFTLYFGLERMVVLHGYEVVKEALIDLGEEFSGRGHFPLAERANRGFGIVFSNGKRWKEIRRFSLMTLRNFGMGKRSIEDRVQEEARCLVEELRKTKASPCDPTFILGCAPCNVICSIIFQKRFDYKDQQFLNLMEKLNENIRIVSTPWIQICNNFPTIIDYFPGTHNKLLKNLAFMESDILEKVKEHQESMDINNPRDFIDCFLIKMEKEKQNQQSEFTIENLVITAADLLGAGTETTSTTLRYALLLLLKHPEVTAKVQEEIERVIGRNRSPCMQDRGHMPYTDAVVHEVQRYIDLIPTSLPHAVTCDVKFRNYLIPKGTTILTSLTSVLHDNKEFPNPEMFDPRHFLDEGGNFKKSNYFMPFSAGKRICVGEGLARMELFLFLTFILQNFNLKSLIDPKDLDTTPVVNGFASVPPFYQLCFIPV

[13] = Oral bioavailability in rat at 3 mg/kg; format: ADME, organism-based; details: in vivo
[14] = Protein binding in rat plasma assessed as unbound fraction at 1 mg/kg administered as cassette dose; format: ADME, organism-based
Cytochrome P450 1A2 = target: T4, Cytochrome P450 1A2 (Homo sapiens, UniProt P05177); test: Inhibition of CYP1A2 (unknown origin); format: ADME
T4 sequence (P05177 whole entry): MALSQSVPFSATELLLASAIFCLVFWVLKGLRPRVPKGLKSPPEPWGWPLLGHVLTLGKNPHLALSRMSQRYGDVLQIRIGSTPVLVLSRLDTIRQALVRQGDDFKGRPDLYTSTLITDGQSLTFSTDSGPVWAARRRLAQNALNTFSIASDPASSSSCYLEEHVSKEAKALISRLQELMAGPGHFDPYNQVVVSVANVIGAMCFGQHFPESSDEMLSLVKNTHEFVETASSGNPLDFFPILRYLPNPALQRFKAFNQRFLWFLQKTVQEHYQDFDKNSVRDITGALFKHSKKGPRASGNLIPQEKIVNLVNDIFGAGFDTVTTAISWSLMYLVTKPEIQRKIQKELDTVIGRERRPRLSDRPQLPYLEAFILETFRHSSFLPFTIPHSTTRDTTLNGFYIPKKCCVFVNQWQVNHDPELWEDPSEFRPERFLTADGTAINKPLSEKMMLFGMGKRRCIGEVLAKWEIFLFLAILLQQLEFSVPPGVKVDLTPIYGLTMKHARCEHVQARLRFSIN

[15] = Protein binding in rat plasma assessed as unbound fraction at 3 mg/kg, iv; format: ADME, organism-based
[16] = Oral bioavailability in rat at 1 mg/kg administered as cassette dose; format: ADME, organism-based; details: in vivo
P2X purinoceptor 2 = target: T5, P2X purinoceptor 2 (Homo sapiens, UniProt Q9UBL9); test: Antagonist activity at P2X2 receptor (unknown origin)
T5 sequence (Q9UBL9 whole entry): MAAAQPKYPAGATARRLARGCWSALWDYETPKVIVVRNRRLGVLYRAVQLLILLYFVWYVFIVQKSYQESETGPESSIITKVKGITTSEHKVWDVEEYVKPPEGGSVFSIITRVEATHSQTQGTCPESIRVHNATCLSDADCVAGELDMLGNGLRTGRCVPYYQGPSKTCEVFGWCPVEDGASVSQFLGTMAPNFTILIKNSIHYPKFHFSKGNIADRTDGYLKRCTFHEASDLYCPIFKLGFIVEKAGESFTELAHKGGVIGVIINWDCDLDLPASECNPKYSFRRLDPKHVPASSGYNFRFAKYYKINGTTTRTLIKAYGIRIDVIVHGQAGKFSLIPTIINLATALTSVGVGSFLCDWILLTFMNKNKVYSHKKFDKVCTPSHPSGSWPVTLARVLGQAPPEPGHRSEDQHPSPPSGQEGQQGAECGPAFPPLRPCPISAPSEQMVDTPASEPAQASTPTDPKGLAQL

[17] = AUC in rat at 3 mg/kg, po; format: ADME, organism-based; parameters: dose 3 mg/kg; details: in vivo
[18] = Cmax in rat at 3 mg/kg, po; format: ADME, organism-based; parameters: route oral, dose 3 mg/kg; details: in vivo
Cytochrome P450 2C9 = Cytochrome P450 2C9 (Homo sapiens, UniProt P11712); test: Inhibition of CYP2C9 (unknown origin); format: ADME
Cytochrome P450 2C9, sequence (P11712 whole entry): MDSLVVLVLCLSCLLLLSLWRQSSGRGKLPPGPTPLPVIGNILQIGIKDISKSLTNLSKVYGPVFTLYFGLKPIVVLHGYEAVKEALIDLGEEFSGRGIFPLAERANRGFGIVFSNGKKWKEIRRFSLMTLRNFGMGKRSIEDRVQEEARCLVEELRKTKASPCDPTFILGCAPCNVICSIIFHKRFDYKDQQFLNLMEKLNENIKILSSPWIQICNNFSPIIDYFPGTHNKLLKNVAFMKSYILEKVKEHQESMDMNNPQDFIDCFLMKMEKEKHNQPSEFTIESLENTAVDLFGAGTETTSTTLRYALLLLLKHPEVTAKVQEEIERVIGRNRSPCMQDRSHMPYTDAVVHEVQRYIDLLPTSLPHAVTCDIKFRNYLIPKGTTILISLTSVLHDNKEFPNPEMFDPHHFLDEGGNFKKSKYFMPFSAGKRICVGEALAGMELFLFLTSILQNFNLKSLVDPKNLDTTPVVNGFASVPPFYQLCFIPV

P2X purinoceptor 4 = target: T6, P2X purinoceptor 4 (Homo sapiens, UniProt Q99571); test: Antagonist activity at P2X4 receptor (unknown origin)
T6 sequence (Q99571 whole entry): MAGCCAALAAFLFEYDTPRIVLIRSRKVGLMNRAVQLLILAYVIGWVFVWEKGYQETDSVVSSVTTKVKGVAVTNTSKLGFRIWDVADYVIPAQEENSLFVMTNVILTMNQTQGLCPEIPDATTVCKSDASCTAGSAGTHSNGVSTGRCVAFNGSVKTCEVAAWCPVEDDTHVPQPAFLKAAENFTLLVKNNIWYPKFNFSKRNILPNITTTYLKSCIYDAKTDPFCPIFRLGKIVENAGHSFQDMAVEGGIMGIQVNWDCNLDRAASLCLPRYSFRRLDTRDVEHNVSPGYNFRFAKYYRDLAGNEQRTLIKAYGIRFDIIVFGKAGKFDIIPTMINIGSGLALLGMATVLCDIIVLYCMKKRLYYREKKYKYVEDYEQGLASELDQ

Cytochrome P450 2D6 = Cytochrome P450 2D6 (Homo sapiens, UniProt P10635); test: Inhibition of CYP2D6 (unknown origin); format: functional
Cytochrome P450 2D6, sequence (P10635 whole entry): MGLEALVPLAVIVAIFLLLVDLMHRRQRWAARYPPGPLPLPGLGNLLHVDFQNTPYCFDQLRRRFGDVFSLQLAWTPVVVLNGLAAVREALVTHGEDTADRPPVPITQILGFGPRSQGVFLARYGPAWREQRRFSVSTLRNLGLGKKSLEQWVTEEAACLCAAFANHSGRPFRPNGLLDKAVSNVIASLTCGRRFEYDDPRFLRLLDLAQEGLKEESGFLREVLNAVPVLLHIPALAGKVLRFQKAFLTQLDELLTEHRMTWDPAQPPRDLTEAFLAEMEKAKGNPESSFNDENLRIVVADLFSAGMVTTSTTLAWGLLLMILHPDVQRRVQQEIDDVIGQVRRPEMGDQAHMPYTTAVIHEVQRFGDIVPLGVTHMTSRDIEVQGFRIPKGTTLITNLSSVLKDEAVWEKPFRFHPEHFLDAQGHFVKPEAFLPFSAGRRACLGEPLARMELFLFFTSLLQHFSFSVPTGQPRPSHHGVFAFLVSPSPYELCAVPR

SMILES | half-life [1] | IC50 (P2X purinoceptor 3) | clearance [5] | solubility [9] | Cp(f) [10] | IC50 (Cytochrome P450 3A4) | ED50 (Rattus norvegicus [11]) | IC50 (P2X purinoceptor 1) | solubility [12] | IC50 (P2X purinoceptor 7) | IC50 (Cytochrome P450 2C19) | bioavailability [13] | fraction unbound [14] | IC50 (Cytochrome P450 1A2) | fraction unbound [15] | bioavailability [16] | IC50 (P2X purinoceptor 2) | AUC [17] | Cmax [18] | IC50 (Cytochrome P450 2C9) | also measured
Cc1ccc(Cn2c(Nc3ccc(OC(C)C)c(Cl)c3)nc(=O)n(CCC(=O)O)c2=O)cc1 | 1.6 h | 0.0061 µM | 2.7 mL/min/kg | – | – | – | – | – | – | – | – | – | – | – | – | – | – | – | – | – | concentration at 3 h [2]: 2650 nM; Activity (Rattus norvegicus [3]): 40%; concentration at 3 h [4]: 1320 nM; Activity (Rattus norvegicus [6]): 23%; concentration at 3 h [7]: 7840 nM; Activity (Rattus norvegicus [8]): 11%
C[C@@H](Cn1c(=O)[nH]/c(=N\c2ccc(Oc3ccsn3)cc2)n(Cc2ccc(Cl)cc2)c1=O)C(=O)O | 4.4 h | 0.0077 µM | 2.2 mL/min/kg | 650 µg/mL (≈ 1260 µM) | 671 nM | > 20 µM | 0.4 mg/kg | > 30 µM | 0.8 µg/mL (≈ 1.56 µM) | > 30 µM | > 20 µM | 60% | 0.012 | > 20 µM | 0.012 | 87.6% | > 30 µM | 13700 ng·h/mL | 1610 ng/mL | > 20 µM | IC50 (P2X purinoceptor 4): > 30 µM; IC50 (Cytochrome P450 2D6): > 20 µM
C[C@@H](Cn1c(=O)[nH]/c(=N\c2ccc(Oc3ccnc(F)c3)cc2)n(Cc2ccc(Cl)cc2)c1=O)C(=O)O | 4.3 h | 0.0038 µM | 5.9 mL/min/kg | 212 µg/mL (≈ 403 µM) | 738 nM | > 20 µM | 0.3 mg/kg | > 30 µM | 2.2 µg/mL (≈ 4.18 µM) | > 30 µM | > 20 µM | 46.9% | 0.013 | > 20 µM | 0.013 | 43.2% | > 30 µM | 4020 ng·h/mL | 597 ng/mL | > 20 µM | IC50 (P2X purinoceptor 4): > 30 µM; IC50 (Cytochrome P450 2D6): > 20 µM
